From US20120282201A1, “NOVEL COMPOUNDS” (priority 2009, published 2012)

Test: Comparative example: solubility of BMDBM in 1:1 (w/w) mixture of C12-15 alkyl benzoate and a polymeric or solid UV-filter
Type: physicochemical
Excerpt: Where necessary the mixture was centrifuged in order to obtain a clear supernatant.

Solubility of BMDBM in C12-15 alkyl benzoate/UV-filter 1:1 (200 mg BMDBM with 1000 mg of 1:1 (w/w) mixture, supernatant by HPLC after 1 month at RT): 3 wt.-%
Δ solubility of BMDBM related to cosmetic solvent (C12-15 alkyl benzoate/UV-filter 1:1): −4 wt.-%
Δ solubility of BMDBM (C12-15 alkyl benzoate/UV-filter 1:1 versus C12-15 alkyl benzoate): −11 wt.-%
SMILES: CCCCC(CC)COc1ccc(-c2nc(-c3ccc(OC)cc3)nc(-c3ccc(OCC(CC)CCCC)cc3O)n2)c(O)c1 (stereo not drawn) [BEMT, bis-ethylhexyloxyphenol methoxyphenyl triazine]
